Results on 17 sequences are retold here after patent US20060263802A1 (priority 2003, published 2006).

Common to all, as to assay type: binding
In assay [1] the test system is human monoclonal antibody CRJA.
Assay [2] deals with human monoclonal antibody CR57.
In assay [3] the test system is human monoclonal antibody CR57. This is another data set of the same source.
Assay [4] deals with human monoclonal antibody CRJB.
Assay [5] has as its system human monoclonal antibody CRJA. The source holds these as a separate data set.
Assay [6] deals with human monoclonal antibody CRJB. This is another data set of the same source.

Turning to MELLESSVIPLVHPL, the “Binding of CRJA (10 μg/ml) to looped/cyclic peptide (PEPSCAN-ELISA)” value in assay [1] came out at 94. In addition, in assay [2], the “Binding of CR57 to linear peptide (PEPSCAN-ELISA signal)” value (shortened to “Binding of CR57 to linear peptide”) is 90. In assay [3], the “Binding of CR57 (10 μg/ml) to looped/cyclic peptide (PEPSCAN-ELISA)” value came to 115. In assay [4], the “Binding of CRJB (10 μg/ml) to looped/cyclic peptide (PEPSCAN-ELISA)” value turned out to be 100. Also, the “Binding of CRJA to linear peptide (PEPSCAN-ELISA signal)” value (“Binding of CRJA to linear peptide” for short) in assay [5] was determined as 83. The “Binding of CRJB to linear peptide (PEPSCAN-ELISA signal)” value (“Binding of CRJB to linear peptide” below) in assay [6] came to 125.

As to LESIMTTKSVSFRRL, the “Binding of CRJA (10 μg/ml) to looped/cyclic peptide (PEPSCAN-ELISA)” value in assay [1] was found to be 91. Moreover, in assay [2], the “Binding of CR57 to linear peptide” value is on record as 48. The “Binding of CR57 (10 μg/ml) to looped/cyclic peptide (PEPSCAN-ELISA)” value in assay [3] is reported as 94. Also, the “Binding of CRJB (10 μg/ml) to looped/cyclic peptide (PEPSCAN-ELISA)” value in assay [4] was 78. In addition, in assay [5], the “Binding of CRJA to linear peptide” value came to 94. Besides, the “Binding of CRJB to linear peptide” value in assay [6] came to 114.

Take GGRCHPHVNGVFFNG: the “Binding of CRJA (10 μg/ml) to looped/cyclic peptide (PEPSCAN-ELISA)” value in assay [1] is 107. Moreover, the “Binding of CR57 to linear peptide” value in assay [2] amounted to 86. Moreover, in assay [3], the “Binding of CR57 (10 μg/ml) to looped/cyclic peptide (PEPSCAN-ELISA)” value was found to be 134. Moreover, the “Binding of CRJB (10 μg/ml) to looped/cyclic peptide (PEPSCAN-ELISA)” value in assay [4] worked out at 110. For the same sequence, the “Binding of CRJA to linear peptide” value in assay [5] is 110. For the same sequence, the “Binding of CRJB to linear peptide” value in assay [6] stood at 119.

As for LVVEDEGCTNLSGFS, the “Binding of CRJA (10 μg/ml) to looped/cyclic peptide (PEPSCAN-ELISA signal)” value in assay [1] was 104. The “Binding of CR57 to linear peptide” value in assay [2] is recorded as 76. Moreover, the “Binding of CR57 (10 μg/ml) to looped/cyclic peptide (PEPSCAN-ELISA signal)” value in assay [3] stood at 76. The “Binding of CRJB (10 μg/ml) to looped/cyclic peptide (PEPSCAN-ELISA signal)” value in assay [4] turned out to be 82. Besides, in assay [5], the “Binding of CRJA to linear peptide” value was 58. For the same sequence, in assay [6], the “Binding of CRJB to linear peptide” value came to 103.

In the case of NNLVVEDEGCTNLSG, the “Binding of CRJA (10 μg/ml) to looped/cyclic peptide (PEPSCAN-ELISA signal)” value in assay [1] is 88. In addition, the “Binding of CR57 to linear peptide” value in assay [2] is listed as 72. In assay [3], the “Binding of CR57 (10 μg/ml) to looped/cyclic peptide (PEPSCAN-ELISA signal)” value is 86. Besides, the “Binding of CRJB (10 μg/ml) to looped/cyclic peptide (PEPSCAN-ELISA signal)” value in assay [4] is given as 75. Also, in assay [5], the “Binding of CRJA to linear peptide” value was 93. In addition, the “Binding of CRJB to linear peptide” value in assay [6] came to 99.

SKGSETCGFVDERGL: in assay [1], the “Binding of CRJA (10 μg/ml) to looped/cyclic peptide (PEPSCAN-ELISA)” value stood at 99. The “Binding of CR57 to linear peptide” value in assay [2] is recorded as 92. In addition, the “Binding of CR57 (10 μg/ml) to looped/cyclic peptide (PEPSCAN-ELISA)” value in assay [3] is reported as 104. The “Binding of CRJB (10 μg/ml) to looped/cyclic peptide (PEPSCAN-ELISA)” value in assay [4] stood at 77. In addition, the “Binding of CRJA to linear peptide” value in assay [5] is listed as 104. Moreover, the “Binding of CRJB to linear peptide” value in assay [6] is on record as 102.

LGLRLMDGTWVAMQT: the “Binding of CRJA (10 μg/ml) to looped/cyclic peptide (PEPSCAN-ELISA)” value in assay [1] is reported as 97. Moreover, the “Binding of CR57 to linear peptide” value in assay [2] was 102. Further, the “Binding of CR57 (10 μg/ml) to looped/cyclic peptide (PEPSCAN-ELISA)” value in assay [3] is reported as 92. Besides, in assay [4], the “Binding of CRJB (10 μg/ml) to looped/cyclic peptide (PEPSCAN-ELISA)” value is reported as 108. Also, the “Binding of CRJA to linear peptide” value in assay [5] came to 113. In addition, in assay [6], the “Binding of CRJB to linear peptide” value came out at 115.

Take TWNEILPSKGCLRVG: in assay [1], the “Binding of CRJA (10 μg/ml) to looped/cyclic peptide (PEPSCAN-ELISA)” value stood at 127. Also, in assay [2], the “Binding of CR57 to linear peptide” value is reported as 97. In addition, the “Binding of CR57 (10 μg/ml) to looped/cyclic peptide (PEPSCAN-ELISA)” value in assay [3] amounted to 132. Further, the “Binding of CRJB (10 μg/ml) to looped/cyclic peptide (PEPSCAN-ELISA)” value in assay [4] was 113. In addition, the “Binding of CRJA to linear peptide” value in assay [5] was determined as 93. The “Binding of CRJB to linear peptide” value in assay [6] stood at 146.

For the sequence NPRLGMSCDIFTNSR, in assay [1], the “Binding of CRJA (10 μg/ml) to looped/cyclic peptide (PEPSCAN-ELISA signal)” value is reported as 91. In addition, in assay [2], the “Binding of CR57 to linear peptide” value stood at 90. Besides, the “Binding of CR57 (10 μg/ml) to looped/cyclic peptide (PEPSCAN-ELISA signal)” value in assay [3] is listed as 78. Besides, in assay [4], the “Binding of CRJB (10 μg/ml) to looped/cyclic peptide (PEPSCAN-ELISA signal)” value is on record as 101. Further, the “Binding of CRJA to linear peptide” value in assay [5] came to 82. Further, in assay [6], the “Binding of CRJB to linear peptide” value stood at 113.

Take SRGKRASKGSETCGF: the “Binding of CRJA (10 μg/ml) to looped/cyclic peptide (PEPSCAN-ELISA signal)” value in assay [1] is listed as 82. The “Binding of CR57 to linear peptide” value in assay [2] came out at 64. In addition, the “Binding of CR57 (10 μg/ml) to looped/cyclic peptide (PEPSCAN-ELISA signal)” value in assay [3] is recorded as 96. Moreover, the “Binding of CRJB (10 μg/ml) to looped/cyclic peptide (PEPSCAN-ELISA signal)” value in assay [4] turned out to be 86. In assay [5], the “Binding of CRJA to linear peptide” value came to 70. In addition, in assay [6], the “Binding of CRJB to linear peptide” value is listed as 93.

In the case of SSLLQQHMELLESSV, the “Binding of CRJA (10 μg/ml) to looped/cyclic peptide (PEPSCAN-ELISA)” value in assay [1] came to 90. The “Binding of CR57 to linear peptide” value in assay [2] is 90. Moreover, the “Binding of CR57 (10 μg/ml) to looped/cyclic peptide (PEPSCAN-ELISA)” value in assay [3] came to 98. Moreover, the “Binding of CRJB (10 μg/ml) to looped/cyclic peptide (PEPSCAN-ELISA)” value in assay [4] is reported as 76. In addition, in assay [5], the “Binding of CRJA to linear peptide” value is given as 106. Besides, in assay [6], the “Binding of CRJB to linear peptide” value was 128.

Regarding ADPSTVFKDGDEAED, the “Binding of CRJA to looped/cyclic peptide (PEPSCAN-ELISA signal)” value in assay [1] amounted to 101. Besides, the “Binding of human monoclonal antibody CR57 to linear peptide (PEPSCAN-ELISA signal)” value in assay [2] is on record as 147. Moreover, the “Binding of CR57 to looped/cyclic peptide (PEPSCAN-ELISA signal)” value in assay [3] turned out to be 118. Also, in assay [4], the “Binding of CRJB to looped/cyclic peptide (PEPSCAN-ELISA signal)” value worked out at 72. Moreover, the “Binding of human monoclonal antibody CRJA to linear peptide (PEPSCAN-ELISA signal)” value in assay [5] turned out to be 101. Also, the “Binding of human monoclonal antibody CRJB to linear peptide (PEPSCAN-ELISA signal)” value in assay [6] amounted to 152.

With FNKTLMEADAHYKSV, the “Binding of CRJA (10 μg/ml) to looped/cyclic peptide (PEPSCAN-ELISA)” value in assay [1] was found to be 101. Moreover, the “Binding of CR57 to linear peptide” value in assay [2] was determined as 111. The “Binding of CR57 (10 μg/ml) to looped/cyclic peptide (PEPSCAN-ELISA)” value in assay [3] is 124. Besides, the “Binding of CRJB (10 μg/ml) to looped/cyclic peptide (PEPSCAN-ELISA)” value in assay [4] was found to be 129. Besides, in assay [5], the “Binding of CRJA to linear peptide” value was found to be 86. Further, the “Binding of CRJB to linear peptide” value in assay [6] is listed as 141.

With SKGCLRVGGRCHPHV, the “Binding of CRJA (10 μg/ml) to looped/cyclic peptide (PEPSCAN-ELISA)” value in assay [1] worked out at 71. In addition, the “Binding of CR57 to linear peptide” value in assay [2] came to 72. The “Binding of CR57 (10 μg/ml) to looped/cyclic peptide (PEPSCAN-ELISA)” value in assay [3] is listed as 79. In addition, the “Binding of CRJB (10 μg/ml) to looped/cyclic peptide (PEPSCAN-ELISA)” value in assay [4] is on record as 87. Besides, the “Binding of CRJA to linear peptide” value in assay [5] was found to be 87. For the same sequence, the “Binding of CRJB to linear peptide” value in assay [6] is reported as 121.

Take EVHLPDVHNQVSGVD: the “Binding of CRJA to looped/cyclic peptide (PEPSCAN-ELISA signal)” value in assay [1] amounted to 103. For the same sequence, the “Binding of human monoclonal antibody CR57 to linear peptide (PEPSCAN-ELISA signal)” value in assay [2] is 91. Further, the “Binding of CR57 to looped/cyclic peptide (PEPSCAN-ELISA signal)” value in assay [3] is on record as 125. Also, the “Binding of CRJB to looped/cyclic peptide (PEPSCAN-ELISA signal)” value in assay [4] is given as 107. In assay [5], the “Binding of human monoclonal antibody CRJA to linear peptide (PEPSCAN-ELISA signal)” value is recorded as 104. In addition, the “Binding of human monoclonal antibody CRJB to linear peptide (PEPSCAN-ELISA signal)” value in assay [6] was determined as 150.

Turning to GCTNLSGFSYMELKV, the “Binding of CRJA (10 μg/ml) to looped/cyclic peptide (PEPSCAN-ELISA signal)” value in assay [1] was 55. Further, the “Binding of CR57 to linear peptide” value in assay [2] stood at 55. Also, in assay [3], the “Binding of CR57 (10 μg/ml) to looped/cyclic peptide (PEPSCAN-ELISA signal)” value is given as 63. The “Binding of CRJB (10 μg/ml) to looped/cyclic peptide (PEPSCAN-ELISA signal)” value in assay [4] came to 55. In assay [5], the “Binding of CRJA to linear peptide” value came to 72. Also, in assay [6], the “Binding of CRJB to linear peptide” value was found to be 114.

With TGVVTEAENYTNFVG, in assay [1], the “Binding of CRJA (10 μg/ml) to looped/cyclic peptide (PEPSCAN-ELISA signal)” value was 96. In addition, in assay [2], the “Binding of CR57 to linear peptide” value was 85. Also, the “Binding of CR57 (10 μg/ml) to looped/cyclic peptide (PEPSCAN-ELISA signal)” value in assay [3] turned out to be 92. In addition, the “Binding of CRJB (10 μg/ml) to looped/cyclic peptide (PEPSCAN-ELISA signal)” value in assay [4] was 69. The “Binding of CRJA to linear peptide” value in assay [5] is 86. Further, the “Binding of CRJB to linear peptide” value in assay [6] was 110.
